The values below are quoted from earlier work in patent publication US20070254070A1, “Encapsulating Plant Extracts Adsorbed and/or Absorbed in Precipitated Silica” (AXISS FRANCE S.A.S., priority 2004, published 2007).

The test system of the series is bacteria.

Regarding `Cc1ccc(C(C)C)cc1O` [carvacrol], the action on bacteria entry is recorded as “bactericidal”.
